The results in this text go back to article PMC10138554, “Insights into the Microbicidal, Antibiofilm, Antioxidant and Toxicity Profile of New O-Aryl-Carbamoyl-Oxymino-Fluorene Derivatives” (International Journal of Molecular Sciences, 2023).

For test [1], the system named is C. albicans ATCC 90029. Description: Anti-biofilm activity assay, purple violet microtiter method. In kind it is cell-based, Candida albicans. The note with it: C. albicans ATCC 90029 biofilm. The method, then: (§1) The inhibitory activity of the obtained compounds has been assessed on five microbial strains, respectively: E. coli ATCC 25922, P. aeruginosa ATCC 27853, S. aureus ATCC 25923, E. faecalis ATCC 29212 and C. albicans ATCC 90029, in a planktonic and adherent growth state.
(§2) The anti-biofilm activity assay was performed by the purple violet microtiter method, as previously described, allowing us to determine the minimal biofilm inhibitory concentration (MBEC). The same range of concentrations, as in the MIC assay, i.e., from 5 to 0.009 mg/mL has been tested.

The test system of test [2] is P. aeruginosa ATCC 27853. The description is as above. In kind it is cell-based, Pseudomonas aeruginosa. As to conditions: P. aeruginosa ATCC 27853 biofilm. As to the method: as §1, §2
For test [3], the system named is E. coli ATCC 25922. Put plainly: Flow cytometry (FCM) membrane depolarization, DiBAC4(3). Type of test: cell-based, Escherichia coli. As to conditions: DiBAC4, 18–24 h. As to the method: (§3) The investigation of potential mechanisms of antimicrobial action by flow cytometry (FCM) was performed on microbial cultures obtained after 18–24 h of microbial cell incubation in the presence of subinhibitory concentrations of the analyzed compounds. Thus, microbial suspensions with a density of approximately 10^6 CFU/mL were prepared in sterile saline phosphate buffer from exponentially growing microbial cultures, obtained on a solid culture medium. Subinhibitory concentrations of the compounds were prepared in Muller–Hinton liquid culture medium and inoculated with an equal amount of microbial suspension and incubated for 18–24 h at 37 °C.
(§4) Microbial suspensions inoculated in a liquid medium were used as growth control. After incubation, the DiBAC4 fluorochrome solution [bis-(1,3-dibutylbarbituric acid) trimethinoxonol] Invitrogen/Life Technologies, Carlsbad, was added (0.5 μg/mL).
(§5) Fluorescence intensity (FI) was measured with an Accuri C6 plus flow cytometer in the FITC fluorescence channel. Growth control was used to locate the microbial cell population for fluorescence measurements. DiBAC4 dye was used to detect changes in the microbial membrane potential. […] A twofold increased fluorescence intensity (median fluorescence intensity = MFI) was considered to correspond to the depolarized microbial cells. For each subinhibitory concentration, a coloring index (CI) was calculated which represents the ratio of fluorescence intensity (FI) of treated versus untreated cells.
In general terms: In flow cytometry, cells or beads pass a laser one at a time.

Test [4] relates to C. albicans ATCC 90029. Description: MIC assay, serial two-fold microdilution in liquid medium. Type of test: cell-based. As to conditions: Candida albicans, ATCC90029; C. albicans ATCC 90029, planktonic, 37 °C, 24 h; read-out: minimum inhibitory concentration (MIC). The method, then:
as §1
(§6) The MIC assay was performed by the serial two-fold microdilutions in a liquid medium, using a concentration range from 5 to 0.009 mg/mL and microbial suspensions of 0.5 MacFarland density. The wells containing only the microbial culture served as positive control and those containing the sterile culture medium as the negative control. The MIC values were read after incubation at 37 °C for 24 h.
Background: Dilution methods test growth across graded concentrations, often in twofold steps.

Test [5] has as its system S. aureus ATCC 25923. The description is as above. In kind it is cell-based. The note with it: Staphylococcus aureus, ATCC25923; S. aureus ATCC 25923, planktonic, 37 °C, 24 h; read-out: minimum inhibitory concentration (MIC). The method, then: as §1, §6
The subject of test [6] is E. faecalis ATCC 29212. The description is as above. In kind it is cell-based. As to conditions: Enterococcus faecalis, ATCC29212; E. faecalis ATCC 29212, planktonic, 37 °C, 24 h; read-out: minimum inhibitory concentration (MIC). As to the method:
as §1, §6

Test [7] relates to P. aeruginosa ATCC 27853. The description is as above. Type of test: cell-based. The note with it: Pseudomonas aeruginosa, ATCC27853; P. aeruginosa ATCC 27853, planktonic, 37 °C, 24 h; read-out: minimum inhibitory concentration (MIC). The method, then:
as §1, §6

For test [8], the system named is E. coli ATCC 25922. The test is described as above. In kind it is cell-based. As to conditions: Escherichia coli, ATCC25922; E. coli ATCC 25922, planktonic, 37 °C, 24 h; read-out: minimum inhibitory concentration (MIC). As to the method:
as §1, §6

The subject of test [9] is C. albicans ATCC 90029. Put plainly: MBC assay, plating on solid medium after MIC reading. Type of test: cell-based. As to conditions: Candida albicans, ATCC90029, read-out: minimum bactericidal concentration (MBC). The method, then: as §1
(§7) The MB assay was performed after reading the MIC values.

Test [10] relates to S. aureus ATCC 25923. The description is as above. Type of test: cell-based. As to conditions: Staphylococcus aureus, ATCC25923, read-out: minimum bactericidal concentration (MBC). As to the method: as §1, §7
For test [11], the system named is E. faecalis ATCC 29212. The description is as above. The note with it: Enterococcus faecalis, ATCC29212, read-out: minimum bactericidal concentration (MBC). Type of test: cell-based. As to the method: as §1, §7
The subject of test [12] is P. aeruginosa ATCC 27853. The test is described as above. In kind it is cell-based. The note with it: Pseudomonas aeruginosa, ATCC27853, read-out: minimum bactericidal concentration (MBC). The method, then: as §1, §7
The subject of test [13] is E. coli ATCC 25922. The test is described as above. The note with it: Escherichia coli, ATCC25922, read-out: minimum bactericidal concentration (MBC). In kind it is cell-based. As to the method:
as §1, §7

In test [14] the test system is E. coli ATCC 25922. Description: Anti-biofilm activity assay, purple violet microtiter method. In kind it is cell-based, Escherichia coli. As to conditions: E. coli ATCC 25922 biofilm. As to the method: as §1, §2
Test [15] is described as follows: Scavenger activity towards ABTS•+ free radical. In kind it is biochemical. The note with it: 6 min; for IC50: linear regression over 25–1000 μM, mean ± SD of three, read-out: IC50 by means of ABTS•+ assay. The method, then: The method according to Re R. et al. was used to evaluate the scavenger capacity of the free radical.
The ABTS^•+ free radical resulted from the reaction between 2,2′-azinobis-(3-ethylbenzothiazoline-6-sulfonic acid) diammonium salt (7.4 mM) (solution 1) (Sigma-Aldrich, Germany) and potassium persulfate (2.6 mM) (solution 2) (Roth, Germany).
In order to obtain the ABTS^•+ free radical reagent, equal volumes of solutions 1 and 2 were mixed for 16 h. The obtained reagent was kept in the dark; 1 mL of the obtained solution was brought to a 50 mL volumetric flask and diluted with ethanol so that the absorbance at λ = 734 nm would be 0.700 ± 0.02.
The tested compounds were dissolved and diluted similar to the previous antioxidant assay. […]
The following formula was used for the calculation of the ABTS^•+ free radical scavenger activity (%) Inhibition %=Abst=0min−Abst=6min/Abst=0min×100 where: Abst = ABTS^•+ solution absorbance in the absence (0 min)/presence (6 min) of the tested compounds.
For both the above-mentioned methods, the antioxidant activity was expressed as IC50 values (μM) which represent the concentration of each compound for which the scavenging activity of free radicals is 50%. […]

Test [16] has as its system S. aureus ATCC 25923. Put plainly: Flow cytometry (FCM) membrane depolarization, DiBAC4(3). In kind it is cell-based, Staphylococcus aureus. The note with it: for staining index value (SI): S. aureus ATCC 25923, DiBAC4, 18–24 h. As to the method: as §3, §4, §5
Setting [17] is: subinhibitory concentration tested 1.25 mg/mL.
[18] abbreviates: subinhibitory concentration tested 2.5 mg/mL.

Values after ≈ are worked out from the molar mass of the structure shown.

In general, IC50 refers to the point on the concentration scale where inhibition reaches its midpoint. With `O=C(Nc1ccccc1)ON=C1c2ccccc2-c2ccccc21` [Compound 1a, 9-(phenylcarbamoyloxymino)fluoren], the entries for the “minimum biofilm inhibitory concentration (MBIC)” value in test [1], in test [2] and in [14] were 0.312 mg/mL, 0.009 mg/mL and 0.625 mg/mL, respectively. Also, the results for the “staining index value (SI)” value in test [3] (setting [17]) and in test [16] (setting [18]) were 80.7 and 3.5, respectively. Moreover, the MIC in [4], in [5], in [6], in test [7] and in [8] was 2500 µg/mL (≈ 7.95 mM) in each case. The MBC is 5000 µg/mL (≈ 15.9 mM) in test [9]; 5000 µg/mL (≈ 15.9 mM) in [10]; 5000 µg/mL (≈ 15.9 mM) in [11]; 2500 µg/mL (≈ 7.95 mM) in [12]; 2500 µg/mL (≈ 7.95 mM) in test [13]. For the same molecule, the IC50 in [15] was determined as 9.8854 ± 0.000251 mM.
With `Cc1cccc(NC(=O)ON=C2c3ccccc3-c3ccccc32)c1` [Compound 1b, 9-((3-methyl-phenyl)carbamoyloximino)fluoren], the figures for the “minimum biofilm inhibitory concentration (MBIC)” value in test [1], in test [2] and in test [14] were 0.078 mg/mL, 0.156 mg/mL and 0.078 mg/mL, respectively. Further, the “staining index value (SI)” value in [3] (setting [18]) is recorded as 10.2; in [16] (setting [18]), 8.17. Also, the MIC is 5000 µg/mL (≈ 15.2 mM) in [4]; 2500 µg/mL (≈ 7.61 mM) in test [5]; 10000 µg/mL (≈ 30.5 mM) in test [6]; 2500 µg/mL (≈ 7.61 mM) in test [7]; 5000 µg/mL (≈ 15.2 mM) in test [8]. Further, the MBC was found to be 10000 µg/mL (≈ 30.5 mM) in [9]; 5000 µg/mL (≈ 15.2 mM) in test [10]; 10000 µg/mL (≈ 30.5 mM) in test [11]; 2500 µg/mL (≈ 7.61 mM) in [12]; 5000 µg/mL (≈ 15.2 mM) in [13]. Further, the “ABTS•+ free radical scavenger activity” value in [15] (at 1000 μM) is listed as 26.60%. The IC50 in [15] came to 9.3794 ± 0.00102 mM.
Turning to `O=C(Nc1cccc(Cl)c1)ON=C1c2ccccc2-c2ccccc21` [Compound 1c, 9-((3-chloro-phenyl)carbamoyloxymino)fluoren], the “minimum biofilm inhibitory concentration (MBIC)” value worked out at 0.312 mg/mL in test [1], 1.25 mg/mL in test [2] and 1.25 mg/mL in test [14]. For the same molecule, the “staining index value (SI)” value in test [3] (setting [17]) is given as 3.2; in test [16] (setting [18]), 0.19. The MIC in test [4] came out at 5000 µg/mL (≈ 14.3 mM); in test [5], 2500 µg/mL (≈ 7.17 mM); in test [6], 5000 µg/mL (≈ 14.3 mM); in [7] it was 2500 µg/mL (≈ 7.17 mM); in [8] it was 2500 µg/mL (≈ 7.17 mM). In addition, the MBC in test [9] was 10000 µg/mL (≈ 28.7 mM); in test [10], 5000 µg/mL (≈ 14.3 mM); in test [11], 5000 µg/mL (≈ 14.3 mM); in test [12] it was 2500 µg/mL (≈ 7.17 mM); in [13] it was 5000 µg/mL (≈ 14.3 mM). Further, in test [15] (at 25 μM), the “ABTS•+ free radical scavenger activity” value is 12.53%. In [15], the IC50 worked out at 18.2 mM. For the same molecule, the “changes in the membrane potential” value in [16] (S. aureus ATCC 25923, subinhibitory concentration) is listed as “did not cause changes”.
Turning to `O=C(Nc1ccc(Cl)c(Cl)c1)ON=C1c2ccccc2-c2ccccc21` [Compound 1d, 9-((3,4-dichloro-phenyl)carbamoyloxymino)fluoren], the “minimum biofilm inhibitory concentration (MBIC)” value is 0.312 mg/mL in test [1], 1.25 mg/mL in [2] and 0.625 mg/mL in [14]. The “staining index value (SI)” value in [3] (setting [17]) is reported as 173.3; in test [16] (setting [17]), 4.2. Further, the MIC is 5000 µg/mL (≈ 13 mM) in test [4]; 156 µg/mL (≈ 0.407 mM) in test [5]; 5000 µg/mL (≈ 13 mM) in test [6]; 2500 µg/mL (≈ 6.52 mM) in [7]; 5000 µg/mL (≈ 13 mM) in test [8]. The MBC amounted to 10000 µg/mL (≈ 26.1 mM) in test [9]; 312 µg/mL (≈ 0.814 mM) in test [10]; 5000 µg/mL (≈ 13 mM) in test [11]; 2500 µg/mL (≈ 6.52 mM) in test [12]; 5000 µg/mL (≈ 13 mM) in test [13].
